Consider 3 compounds from ChEMBL document CHEMBL4396913, “Synthesis and biological evaluation of hybrid quinolone-based quaternary ammonium antibacterial agents” (Eur J Med Chem, 2019).

In brackets after ≈: the same amount, converted by molar mass. A value given as a limit tells only on which side of the number the result lay.

Data set [1] relates to Staphylococcus aureus. In words: Antibacterial activity against methicillin resistant Staphylococcus aureus 6347 cultured in MH medium assessed as reduction in bacterial growth incubated for 48 hrs by microbroth dilution method. The data set is classed as functional. To be noted: Staphylococcus aureus, 6347, 48 h. For orientation: In broth dilution the organism is exposed to a series of concentrations in liquid medium.

The test system of data set [2] is Serratia marcescens. In words: Bactericidal activity against Serratia marcescens ATCC 12795 cultured in MH medium assessed as reduction in bacterial survival incubated for 48 hrs by microbroth dilution method. The data set is classed as functional. To be noted: ATCC 12795, 48 h.
The test system of data set [3] is Enterococcus hirae. In words: Antibacterial activity against Enterococcus hirae ATCC 1052 cultured in BHI medium assessed as reduction in bacterial growth incubated for 48 hrs by microbroth dilution method. The data set is classed as functional. To be noted: ATCC 1052, 48 h.
Data set [4] concerns Staphylococcus aureus. In words: Antibacterial activity against Staphylococcus aureus ATCC 6538 cultured in MH medium assessed as reduction in bacterial growth incubated for 48 hrs by microbroth dilution method. The data set is classed as functional. The note with it: ATCC 6538, 48 h.
For data set [5], the system named is Staphylococcus aureus. In words: Bactericidal activity against Staphylococcus aureus ATCC 6538 cultured in MH medium assessed as reduction in bacterial survival incubated for 48 hrs by microbroth dilution method. To be noted: ATCC 6538, 48 h. The data set is classed as functional.
Data set [6] relates to Pseudomonas aeruginosa. In words: Bactericidal activity against Pseudomonas aeruginosa ATCC 9027 cultured in MH medium assessed as reduction in bacterial survival incubated for 48 hrs by microbroth dilution method. The data set is classed as functional. The note with it: ATCC 9027, 48 h.
Data set [7] deals with Staphylococcus aureus. In words: Antibacterial activity against methicillin resistant Staphylococcus aureus N315 cultured in MH medium assessed as reduction in bacterial growth incubated for 48 hrs by microbroth dilution method. The data set is classed as functional. To be noted: N315, 48 h.
The test system of data set [8] is Staphylococcus aureus. In words: Bactericidal activity against methicillin resistant Staphylococcus aureus N315 cultured in MH medium assessed as reduction in bacterial survival incubated for 48 hrs by microbroth dilution method. The data set is classed as functional. To be noted: N315, 48 h.
The subject of data set [9] is Serratia marcescens. In words: Antibacterial activity against Serratia marcescens ATCC 12795 cultured in MH medium assessed as reduction in bacterial growth incubated for 48 hrs by microbroth dilution method. The data set is classed as functional. The note with it: ATCC 12795, 48 h.
Data set [10] has as its system Pseudomonas aeruginosa. In words: Antibacterial activity against Pseudomonas aeruginosa ATCC 9027 cultured in MH medium assessed as reduction in bacterial growth incubated for 48 hrs by microbroth dilution method. The data set is classed as functional. To be noted: ATCC 9027, 48 h.
For data set [11], the system named is Proteus vulgaris. In words: Bactericidal activity against Proteus vulgaris NCTC 4635 cultured in MH medium assessed as reduction in bacterial survival incubated for 48 hrs by microbroth dilution method. The data set is classed as functional. To be noted: NCTC 4635, 48 h.
In data set [12] the test system is Bacillus spizizenii. In words: Antibacterial activity against Bacillus subtilis ATCC 6633 cultured in MH medium assessed as reduction in bacterial growth incubated for 48 hrs by microbroth dilution method. The note with it: ATCC 6633, 48 h. The data set is classed as functional.
In data set [13] the test system is Escherichia coli. In words: Bactericidal activity against Escherichia coli ATCC 8739 cultured in MH medium assessed as reduction in bacterial survival incubated for 48 hrs by microbroth dilution method. The data set is classed as functional. To be noted: ATCC 8739, 48 h.
Data set [14] deals with Bacillus spizizenii. In words: Bactericidal activity against Bacillus subtilis ATCC 6633 cultured in MH medium assessed as reduction in bacterial survival incubated for 48 hrs by microbroth dilution method. The data set is classed as functional. To be noted: ATCC 6633, 48 h.
Data set [15] has as its system Streptococcus pneumoniae. In words: Bactericidal activity against Streptococcus pneumoniae cultured in MH medium assessed as reduction in bacterial survival incubated for 48 hrs by microbroth dilution method. The data set is classed as functional.
Data set [16] has as its system Staphylococcus epidermidis. In words: Bactericidal activity against Staphylococcus epidermidis ATCC 14990 cultured in MH medium assessed as reduction in bacterial survival incubated for 48 hrs by microbroth dilution method. The note with it: ATCC 14990, 48 h. The data set is classed as functional.
For data set [17], the system named is Proteus vulgaris. In words: Antibacterial activity against Proteus vulgaris NCTC 4635 cultured in MH medium assessed as reduction in bacterial growth incubated for 48 hrs by microbroth dilution method. To be noted: NCTC 4635, 48 h. The data set is classed as functional.
For data set [18], the system named is Staphylococcus epidermidis. In words: Antibacterial activity against Staphylococcus epidermidis ATCC 14990 cultured in MH medium assessed as reduction in bacterial growth incubated for 48 hrs by microbroth dilution method. The data set is classed as functional. The note with it: ATCC 14990, 48 h.
Data set [19] has as its system Streptococcus pneumoniae. In words: Antibacterial activity against Streptococcus pneumoniae cultured in MH medium assessed as reduction in bacterial growth incubated for 48 hrs by microbroth dilution method. The data set is classed as functional.
The subject of data set [20] is Escherichia coli. In words: Antibacterial activity against Escherichia coli ATCC 8739 cultured in MH medium assessed as reduction in bacterial growth incubated for 48 hrs by microbroth dilution method. To be noted: ATCC 8739, 48 h. The data set is classed as functional.
Data set [21] deals with Enterococcus hirae. In words: Bactericidal activity against Enterococcus hirae ATCC 1052 cultured in BHI medium assessed as reduction in bacterial survival incubated for 48 hrs by microbroth dilution method. The data set is classed as functional. To be noted: ATCC 1052, 48 h.
The subject of data set [22] is Staphylococcus aureus. In words: Bactericidal activity against methicillin resistant Staphylococcus aureus 6347 cultured in MH medium assessed as reduction in bacterial survival incubated for 48 hrs by microbroth dilution method. The note with it: Staphylococcus aureus, 6347, 48 h. The data set is classed as functional.
In data set [23] the test system is Staphylococcus epidermidis. In words: Antibacterial activity against methicillin resistant Staphylococcus epidermidis ATCC 13199 cultured in MH medium assessed as reduction in bacterial growth incubated for 48 hrs by microbroth dilution method. The note with it: ATCC 13199, 48 h. The data set is classed as functional.
In data set [24] the test system is HEK293. In words: Cytotoxicity against human HEK293 cells assessed as changes in cell morphology upto 20 uM incubated for 72 hrs by MTT assay. The data set is classed as cell-based. The note with it: hek293, 72 h. (Tetrazolium assays rely on reduction of a dye to a coloured formazan, in cell work by metabolically active cells.)
Data set [25] in a line: Lipophilicity, log k of the compound at 100 ug/ml by micellar electrokinetic chromatography. The data set is classed as physicochemical.
The test system of data set [26] is HEK293. In words: Cytotoxicity against human HEK293 cells assessed as cell viability upto 20 uM incubated for 72 hrs by MTT assay. The note with it: hek293, 72 h. The data set is classed as cell-based.
The test system of data set [27] is Staphylococcus epidermidis. In words: Bactericidal activity against methicillin resistant Staphylococcus epidermidis ATCC 13199 cultured in MH medium assessed as reduction in bacterial survival incubated for 48 hrs by microbroth dilution method. The data set is classed as functional. The note with it: ATCC 13199, 48 h.

For orientation: MIC means the smallest concentration in the dilution series that meets the test's criterion for growth inhibition. A word on the MBC: it is the lowest tested concentration that kills the bacteria rather than only halting them.

As to `COc1c(N2C[C@@H]3CCCN[C@@H]3C2)c(F)cc2c(=O)c(C(=O)O)cn(C3CC3)c12` [MOXIFLOXACIN], the MIC came out at 0.063 µg/mL (≈ 0.157 µM) in the data set on Staphylococcus aureus [1]; 16 µg/mL (≈ 39.9 µM) with Enterococcus hirae [3]; 0.125 µg/mL (≈ 0.311 µM) with Staphylococcus aureus [4]; 0.125 µg/mL (≈ 0.311 µM) in the data set on Staphylococcus aureus [7]; 0.25 µg/mL (≈ 0.623 µM) in the data set with Serratia marcescens [9]; 16 µg/mL (≈ 39.9 µM) in the data set with Pseudomonas aeruginosa [10]. Besides, the MIC in the data set with Bacillus spizizenii [12] was 0.032 µg/mL (≈ 0.0797 µM); in the data set on Proteus vulgaris [17], 0.004 µg/mL (≈ 0.00996 µM); in [18], 0.063 µg/mL (≈ 0.157 µM); with Streptococcus pneumoniae [19], 16 µg/mL (≈ 39.9 µM); with Escherichia coli [20], 0.125 µg/mL (≈ 0.311 µM). Further, the MBC was found to be 0.5 µg/mL (≈ 1.25 µM) with Serratia marcescens [2]; 0.125 µg/mL (≈ 0.311 µM) in the data set with Staphylococcus aureus [5]; 16 µg/mL (≈ 39.9 µM) with Pseudomonas aeruginosa [6]; 0.25 µg/mL (≈ 0.623 µM) in the data set with Staphylococcus aureus [8]; 0.008 µg/mL (≈ 0.0199 µM) in the data set on Proteus vulgaris [11]; 0.25 µg/mL (≈ 0.623 µM) with Escherichia coli [13]. Also, the MBC in the data set with Bacillus spizizenii [14] was found to be 0.032 µg/mL (≈ 0.0797 µM); with Streptococcus pneumoniae [15], 64 µg/mL (≈ 159 µM); in data set [16], 0.125 µg/mL (≈ 0.311 µM); with Enterococcus hirae [21], 32 µg/mL (≈ 79.7 µM); in the data set on Staphylococcus aureus [22], 0.063 µg/mL (≈ 0.157 µM).
With `CC1=CC(C)=C(C(=O)O)C2=N[N+]3(CN12)[C@H](C)CN(c1c(F)c(N)c2c(=O)c(C(=O)O)cn(C4CC4)c2c1F)C[C@@H]3C.[Cl-]` (some centres not stated), the MIC in data set [23] was 2 µg/mL; with Staphylococcus aureus [1], 4 µg/mL; in the data set on Enterococcus hirae [3], over 512 µg/mL; in the data set on Staphylococcus aureus [4], 8 µg/mL; with Staphylococcus aureus [7], 8 µg/mL; in the data set on Serratia marcescens [9], 32 µg/mL. In addition, the MIC in the data set on Pseudomonas aeruginosa [10] is 32 µg/mL; in the data set with Bacillus spizizenii [12], 2 µg/mL; in the data set with Proteus vulgaris [17] it was 1 µg/mL; in [18], 4 µg/mL; in the data set on Streptococcus pneumoniae [19], over 512 µg/mL; in the data set with Escherichia coli [20], 4 µg/mL. Moreover, the MBC was 32 µg/mL in the data set on Serratia marcescens [2]; 16 µg/mL in the data set with Staphylococcus aureus [5]; over 512 µg/mL with Pseudomonas aeruginosa [6]; 8 µg/mL with Staphylococcus aureus [8]; 2 µg/mL with Proteus vulgaris [11]; 4 µg/mL with Escherichia coli [13]. For the same compound, the MBC amounted to 2 µg/mL in the data set with Bacillus spizizenii [14], 16 µg/mL in data set [16], 4 µg/mL in data set [27] and 8 µg/mL with Staphylococcus aureus [22]. The Activity result in the data set on HEK293 [24] and with HEK293 [26] was “Non-Toxic” each time. For the same compound, the “log K” value in [25] was -0.2606.
Take `CCn1cc(C(=O)O)c(=O)c2cnc(N3CC[N+]4(CC3)CN3C(=N4)C(C(=O)O)=Cc4ccccc43)nc21.[Cl-]`: the MIC in data set [23] is 8 µg/mL; in the data set on Staphylococcus aureus [1] it was 256 µg/mL; in the data set with Enterococcus hirae [3], over 512 µg/mL; with Staphylococcus aureus [4] it was 512 µg/mL; in the data set with Staphylococcus aureus [7], 512 µg/mL; in the data set with Serratia marcescens [9], 128 µg/mL. Moreover, the MIC in the data set with Pseudomonas aeruginosa [10] is 128 µg/mL; in the data set with Bacillus spizizenii [12], 64 µg/mL; in the data set with Proteus vulgaris [17], 16 µg/mL; in data set [18], 256 µg/mL; with Streptococcus pneumoniae [19], over 512 µg/mL; with Escherichia coli [20], 16 µg/mL. Further, the MBC in the data set with Serratia marcescens [2] amounted to 128 µg/mL; with Staphylococcus aureus [5], 512 µg/mL; with Pseudomonas aeruginosa [6], 128 µg/mL; in the data set with Staphylococcus aureus [8], 512 µg/mL; in the data set with Proteus vulgaris [11], 16 µg/mL; in the data set with Escherichia coli [13] it was 16 µg/mL. Further, the MBC in the data set on Bacillus spizizenii [14] is 64 µg/mL; in data set [16] it was 256 µg/mL; in data set [27], 16 µg/mL; with Staphylococcus aureus [22], 256 µg/mL. Also, the Activity entry in the data set on HEK293 [24] and in the data set on HEK293 [26] was “Non-Toxic” in each case. Moreover, in [25], the “log K” value is reported as -0.4434.
